In patent publication US7435732B2, “Crystalline polymorphs of (3S)-N-hydroxy-4-({4-[-(4-hydroxy-2-butynyl)oxy]phenyl}sulfonyl)-2,2-dimethyl-3-thiomorpholine carboxamide” (Wyeth, priority 2004, dated 2008):
Where two headings read alike, the source gives them in different places.

What was measured:
[1] = Solid form conversion under humidity / ambient conditions; assay type: physicochemical
Experimental: Polymorph form B is likely also an anhydrous form of apratastat. […] Form B disappears upon mild heating (e.g., at or above about 35° C.) under ambient humidity levels.

[2] = Solid form after open pan DSC heating, by powder XRD; assay type: physicochemical
Experimental: X-ray diffraction data (e.g., FIGS. 1, 4, 6 and 8) were collected using a Philips X'Pert PW-3040-MPD X-ray diffractometer (Philips, Bothell, Wash.) set at 40 kV and 40 mA. Data was collected as a continuous scan at 0.02°/sec. between […].
DSC data (e.g., FIG. 10) were collected using a TA Instruments DSC 2920 Differential Scanning Calorimeter (TA Instruments, New Castle, Del.). Measurements were carried out in both closed pan and open pan modes on about 5-35 mg samples. The heating profile was from 25° C. to 170° C. at 5° C./min, or 25° C. to 120° C. at 5° C./min with a ten minute holding time at 120° C., or 25° C. to 135° C. at 5° C./min with a five minute holding time at 135° C., or 25° C. to 150° C. at 5° C./min with a one minute holding time at 150° C.
A micronized sample of apratastat polymorph form A was subjected to three separate DSC experiments performed in the open pan mode as described in Example 5 above using the 120° C., 135° C., and 150° C. heating profiles. Each sample was cooled to ambient temperature and then recovered for powder X-ray diffraction (XRD) analysis as described in Example 2.
A milled sample of apratastat polymorph form A was subjected to similar DSC conditions.

[3] = test system: TNF-α; test: murine lipopolysaccharide (LPS) model; assay type: in vivo
[4] = test system: human synovium tissue explants from patients suffering from rheumatoid arthritis; test: TNF-α secretion by human synovium tissue explants; assay type: cell-based
[5] = test system: TNF-α; test: primate lipopolysaccharide (LPS) model; assay type: in vivo
[6] = biological target: T1, TNF-α converting enzyme (TACE) (Homo sapiens, UniProt P78536); test: TACE inhibition in vitro; assay type: biochemical
[7] = test system: matrix metalloproteinase (MMP); conditions: cited from earlier work
[8] = biological target: T1, TNF-α converting enzyme (TACE); conditions: as described in U.S. Pat. No. 6,225,311; cited from earlier work

T1 sequence (P78536 215-824, species assumed): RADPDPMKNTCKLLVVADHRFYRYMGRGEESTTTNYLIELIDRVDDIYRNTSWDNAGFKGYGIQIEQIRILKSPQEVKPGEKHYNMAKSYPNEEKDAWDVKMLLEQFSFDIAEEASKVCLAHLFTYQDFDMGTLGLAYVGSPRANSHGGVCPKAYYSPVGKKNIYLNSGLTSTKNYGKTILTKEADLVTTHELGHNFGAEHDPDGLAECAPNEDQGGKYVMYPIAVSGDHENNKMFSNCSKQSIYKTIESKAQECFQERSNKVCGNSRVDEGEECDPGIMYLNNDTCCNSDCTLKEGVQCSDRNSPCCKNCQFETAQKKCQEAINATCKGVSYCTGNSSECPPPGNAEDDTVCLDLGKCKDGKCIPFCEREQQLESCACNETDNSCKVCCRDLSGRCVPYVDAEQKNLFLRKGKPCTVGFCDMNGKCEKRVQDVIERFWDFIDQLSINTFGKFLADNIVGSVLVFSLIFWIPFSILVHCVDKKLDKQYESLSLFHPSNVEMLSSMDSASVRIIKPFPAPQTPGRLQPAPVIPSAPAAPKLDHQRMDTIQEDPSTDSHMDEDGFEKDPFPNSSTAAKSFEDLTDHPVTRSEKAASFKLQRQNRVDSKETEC

CC1(C)SCCN(S(=O)(=O)c2ccc(OCC#CCO)cc2)[C@H]1C(=O)NO [Form B, (3S)-N-hydroxy-4-({4-[(4-hydroxy-2-butynyl)oxy]phenyl}sulfonyl)-2,2-dimethyl-3-thiomorpholinecarboxamide]
solid form stability under ambient conditions ([1]; ambient conditions, little or no energy input): can convert back to form A | solid form stability upon mild heating ([1]; at or above about 35° C., ambient humidity levels): disappears

CC1(C)SCCN(S(=O)(=O)c2ccc(OCC#CCO)cc2)[C@H]1C(=O)NO [apratastat polymorph form A, (3S)-N-hydroxy-4-({4-[(4-hydroxy-2-butynyl)oxy]phenyl}sulfonyl)-2,2-dimethyl-3-thiomorpholinecarboxamide]
solid form stability in low-moisture environment ([1]; about 4-5% relative humidity, at or near room temperature): a portion or all of the polymorph may convert to a new form (form B) | XRD form after heating ([2]; micronized sample, 120° C. heating profile, open pan): Form C | XRD form after heating ([2]; micronized sample, 135° C. heating profile, open pan): Form C | XRD form after heating ([2]; micronized sample, 150° C. heating profile, open pan): Amorphous | XRD form after heating ([2]; milled sample, 120° C. heating profile): Form C + D | XRD form after heating ([2]; milled sample, 135° C. heating profile): Form C + D | XRD form after heating ([2]; milled sample, 150° C. heating profile): Form D

CC1(C)SCCN(S(=O)(=O)c2ccc(OCC#CCO)cc2)[C@H]1C(=O)NO [apratastat, (3S)-N-hydroxy-4-({4-[(4-hydroxy-2-butynyl)oxy]phenyl}sulfonyl)-2,2-dimethyl-3-thiomorpholinecarboxamide]
TNF-α inhibition [3]: potent TNF-α inhibitor | inhibition of TNF-α secretion [4]: inhibits TNF-α secretion | TNF-α inhibition [5]: potent TNF-α inhibitor | inhibition of TACE [6]: potent, reversible, and competitive inhibitor | inhibition of MMP enzymes [7]: inhibitor | inhibition of TACE [8]: inhibitor
